Columns and labels:
MC3T3 H1 osteoblasts [1] = assay: Adhesion of MC3T3 H1 osteoblasts to PMMA moulded articles coated with acrylate RGD peptides; type: cell-based, mouse
Experimental: For the covalent coupling of these peptides to polymerized PMMA (polymethyl methacrylate) surfaces, appropriate shaped articles of differing porosity (diameter: 10 mm; height: 2 mm) were prepared from three different PMMA components.
Bone cement based on PMMA (Merck KGaA, Germany, Licence No. 5181.00.00) corresponding to the product description (40 g of powder+20 ml of liquid).
10 g of PMMA/PHEMA (polyhydroxyethyl methacrylate) granules, particle size 0.5-0.6 mm (Biomet) were mixed with 1.3 ml of an HEMA solution (68.6% HEMA, 29.4% TEGMA [triethylene glycol dimethacrylate], 2% tBPB, [tert-butyl peroxybenzoate]) and adhered by means of this to a porous support material.
10 g of PMMA granules (Plex Y7H, Rohm, Germany), particle fraction 0.7-2 mm were mixed with 1.5 ml of a methyl methacrylate (MMA) solution (68.6% MMA, 29.4% TEGMA, 2% tBPB) and adhered by this means to a porous support material.
For the covalent coupling of the acrylate peptides to the prepolymerized PMMA moulded articles, stock solutions of the acrylate peptides 1, 2, 3 and 4 were prepared in a final concentration of 100 μM in each case in DMSO/0.2% camphorquinone (w/v). Then, by dilution with isopropanol/0.2% camphorquinone (w/v), concentration series having final peptide concentrations of 0.1 nM, 1 nM, 10 nM, 100 nM, 1 μM and 10 μM in each case were prepared. The moulded articles were incubated in daylight and at room temperature for 2 hours and then stored at 4° C. in the dry state. Before use, the samples were washed with PBS, pH 7.4, to remove unbound peptides and stored at 4° C. in PBS, pH 7.4, overnight.
By addition of 250 μl/moulded article each of a 5% strength BSA solution in PBS, pH 7.4, and subsequent incubation for 2 hours at room temperature and washing once with PBS, pH 7.4, non-specific cell-binding sites were blocked.
Subsequently, the adhesion of osteoblasts of the MC3T3 H1 line, obtained from the calvaria of neonatal mice (Heermeier et al., 1995, Cells and Materials 5: 309-321) to the above-described peptide-coated surfaces was investigated.
The MC3T3 H1 osteoblasts were inoculated at an inoculation density of 48,000 cells/cm^2, as described above, in Costar 48-well plates, with PMMA moulded articles coated with RGD peptide and then incubated for 1 hour at 37° C., 95% atmospheric humidity and 5% CO2. Cells non-adhered during the experiment were then washed off twice with PBS, pH 7.4.
The quantification of the adhered cells was carried out indirectly via the activity determination of the cellular enzyme N-acetylhexosaminidase using an appropriate standard curve according to the method of Landegren (1984, J. Immunol. Methods, 67: 379-388).

MC3T3 H1 osteoblasts [2] = assay: Proliferation of MC3T3 H1 osteoblasts on RGD peptide-coated PMMA bone cement shaped articles (WST-1 test); type: cell-based, mouse
From the text: For the covalent coupling of acrylate peptide 3, type iiia, to polymerized PMMA bone cement shaped articles, a coating process which was described in Example 3 was selected.
MC3T3 H1 mouse osteoblasts were then adhered to these RGD peptide-coated bone cement shaped articles as likewise described in Example 3, but with two differences: 12,000 cells/cm^2 instead of 48,000 cells/cm^2 were inoculated and the adhesion time was two hours instead of one hour. Additionally, only three different peptide concentrations were investigated in the coating solution: 0.01 μM, 1 μM and 100 μM.
After washing off non-adherent cells, the MC3T3 H1 osteoblasts were cultured under 95% atmospheric humidity and 5% CO2 at 37° C. in serum-containing (10%) culture medium for a period of 15 days. During the course of this, the medium was changed twice per week and after 1, 2, 3, 4, 5, 10 and 15 days the cell count was determined by means of the WST-1 test by Boehringer Mannheim, Germany. In each case a typical exponential course of the cell proliferation of the cultured osteoblasts was seen here (FIG. 13). The maximally achieved cell count was directly dependent on the RGD peptide concentration in the coating solution. Thus after 15 culturing days per cm^2, about 1,000,000 cells (100 μM peptide), about 550,000 cells (1 μM peptide), about 300,000 cells (0.01 μM peptide) or about 230,000 cells were achieved (control without peptide). At the highest peptide concentration of 100 μM, an approximately 4- to 5-fold increase in the cell proliferation in comparison with uncoated samples was thus observed.

cyclo(RGDf[acrylic-ahx-tEG-K]) [acrylate peptide 3]
stimulation of cell adhesion (in words) (MC3T3 H1 osteoblasts [1]; PMMA carriers, comparison of anchor lengths): higher activity
cell adsorption rates increased in comparison with uncoated surfaces (MC3T3 H1 osteoblasts [1]; bone cement shaped articles, FIG. 8): 5-15 fold
maximal adsorption rates (MC3T3 H1 osteoblasts [1]; different PMMA moulded articles, 48,000 cells/cm^2, 1 hour): 80-100%
EC50 (MC3T3 H1 osteoblasts [1]; different PMMA moulded articles, read-out: half-maximal cell bindings, RGD peptide concentration in the coating solution): 0.001 to 10 µM
cell adsorption rates increased in comparison with uncoated surfaces (MC3T3 H1 osteoblasts [1]; porous PMMA/PHEMA granule shaped articles, FIG. 9): 2-5 fold
cell adsorption rates increased in comparison with uncoated surfaces (MC3T3 H1 osteoblasts [1]; porous Plex Y7H granule shaped articles, FIG. 10): 2-3 fold
cell count after 15 culturing days per cm^2 (MC3T3 H1 osteoblasts [2]; 0.01 μM peptide in the coating solution): about 300,000 cells
cell count after 15 culturing days per cm^2 (MC3T3 H1 osteoblasts [2]; 1 μM peptide in the coating solution): about 550,000 cells
cell count after 15 culturing days per cm^2 (MC3T3 H1 osteoblasts [2]; 100 μM peptide in the coating solution): about 1,000,000 cells

— US6280760A, “Peptide-coated implants and methods for producing same” (Merck Patent Gesellschaft mit beschraenkter Haftung, priority 1997, dated 2001)
